Laboratory results as given in EP4008716A1, “NOVEL INHIBITORS OF INSULIN-LIKE GROWTH FACTOR 2 MRNA BINDING PROTEINS” (Martin-Luther-Universität Halle-Wittenberg, priority 2020, dated 2022).

The compounds below were run on ES-2 cells (assay: Cytotoxicity / cell vitality by cell confluency (IncuCyte live-cell imaging) relative to DMSO controls). Conditions: Homo sapiens, ovarian cancer-derived ES-2 cells, 72 h post compound application, eleven concentrations, two-fold dilution from 20µM, mean of three independent studies.
Format: cell-based
Description: All novel inhibitors were explored for their cytotoxic activity in ovarian cancer-derived ES-2 cells. In these cell models, BTYNB was prior shown to impair cell vitality and metastatic potential in vitro and cancer mouse models (15). For the respective studies ES-2 cells were plated and exposed to increasing concentration of the compounds and cell vitality was monitored by determining cell confluency relative to DMSO controls using an IncuCyte cell imaging system, essentially as described recently (15). For determining the impact of the developed compounds on ES-2 cell vitality, cells were cultured in Dulbecco's modified eagle medium (DMEM) containing phenol red, 4.5 g/L D-Glucose, 0.11 g/L sodium pyruvate, 10% (v/v) fetal bovine serum (FBS) and 2 mM GlutaMAX (Sigma-Aldrich, Darmstadt, Germany). Cells were maintained in under humidified conditions at 37 °C, 5% CO2. For cytotoxicity studies, cells were seeded in 96-well flat-bottom plates at 2 x 10^3 cells per well in 100 µL supplemented DMEM and incubated for 24 h prior to addition of BTYNB derivatives. Compounds were analyzed at eleven concentrations using a two-fold dilution with an initial compound concentration of 20µM in DMSO (solvent). Cells treated with 0.002% (v/v) DMSO served as controls. Cytotoxicity of compound concentrations was determined 72 h post compound application by monitoring cell confluency using an IncuCyte Systems for Live-Cell Imaging. Cell confluency was determined with the IncuCyte 2019B Rev2 software. Confluency of controls was set to 1 (100%) and altered confluency at distinct compound concentrations was calculated as relative confluency. The mean relative confluency at compound concentrations was analyzed in three independent studies with three technical replicates each. The mean values of three analyses were plotted against the logarithmic concentration of compounds and fitted by the non-linear module [Sigmoidal, 4PL, X is log(concentration)] using GraphPad Prism V9(86) for macOS. In Table 1 compounds with EC50 values, indicating the potency of the 58 developed compounds to impair cell vitality, are listed. […] Table 2: EC-values of the synthesized compounds of formula (I)

Compared with `COc1cc(C=CC(=O)Nc2ccccc2C(N)=O)ccc1OCc1ccccc1` [compound 28, 2-({3-[4-(Benzyloxy)-3-methoxyphenyl]acryloyl}amino)benzamide], `COc1ccc(C(=O)Nc2ccccc2C(N)=O)cc1COc1ccccc1Cl` [compound 26, 2-{3-[(2-Chlorophenoxy)methyl]-4-methoxybenzamido}benzamide] is 1.7-fold lower in EC50: 1880 nM for the first, 1100 nM for the second. The second is the more potent here.

Compared with `CNC(=O)c1ccccc1NC(=O)c1cc(C)c(C)s1` [compound 8, 4,5-Dimethyl-N-[2-(methylcarbamoyl)phenyl]thiophene-2-carboxamide], `NC(=O)c1ccccc1NC(=O)c1ccc(Cl)c(Cl)c1` [compound 12, N-[2-(aminocarbonyl)phenyl]-3,4-dichlorobenzamide] is 1.5-fold lower in EC50: 2830 nM for the first, 1880 nM for the second.

Compared with `NC(=O)c1cc(Cc2ccccc2)sc1NC(=O)CCc1ccccc1` [compound 39, 5-Benzyl-2-[(3-phenylpropanoyl)amino]-3-thiophenecarboxamide], `NC(=O)c1cc(Cc2ccccc2)sc1NC(=O)COc1ccccc1` [compound 40, 5-Benzyl-2-[(phenoxyacetyl)amino]-3-thiophenecarboxamide] is 2.6-fold lower in EC50: 6210 nM for the first, 2420 nM for the second. The second is the more potent here.

First: NC(=O)c1ccccc1NC(=O)CN1CCN(Cc2ccc(Cl)cc2Cl)CC1 [compound 21, 2-({[4-(2,4-Dichlorobenzyl)-1-piperazinyl]acetyl}amino)benzamide]
Second: NC(=O)c1cc(Cc2ccccc2)sc1NC(=O)CN1CCN(Cc2ccccc2Cl)CC1 [compound 54, 2-{2-[4-(2-Chlorobenzyl)piperazin-1-yl]acetamido}-5-benzylthiophene-3-carboxamide]
The EC50 of the first is 7.2-fold lower: 993 nM for the first, 7110 nM for the second.

Compared with `COc1ccc(C(=O)Nc2sc(Cc3ccccc3)cc2C(N)=O)cc1COc1cccc(Cl)c1Cl` [compound 45, 5-Benzyl-2-({3-[(2,3-dichlorophenoxy)methyl]-4-methoxybenzoyl}amino)-3-thiophenecarboxamide], `COc1ccc(C(=O)Nc2sc(Cc3ccccc3)cc2C(N)=O)cc1COc1c(Cl)cccc1Cl` [compound 53, 5-Benzyl-2-{3-[(2,6-dichlorophenoxy)methyl]-4-methoxybenzamido}thiophene-3-carboxamide] is 6.5-fold higher in EC50: 401 nM for the first, 2600 nM for the second. The first is the more potent here.

Compared with `NC(=O)c1cc(Cc2ccccc2)sc1NC(=O)c1ccc(COc2ccc(Cl)cc2Cl)s1` [compound 49, N-(5-Benzyl-3-carbamoylthiophen-2-yl)-5-[(2,4-dichlorophenoxy)methyl]thiophene-2-carboxamide], `COc1ccc(C(=O)Nc2sc(Cc3ccccc3)cc2C(N)=O)cc1COc1ccc(Cl)cc1Cl` [compound 47, 5-Benzyl-2-{3-[(2,4-dichlorophenoxy)methyl]-4-methoxybenzamido}thiophene-3-carboxamide] is 1.9-fold lower in EC50: 560 nM for the first, 293 nM for the second. The second is the more potent here.

Compared with `NC(=O)c1ccsc1NC(=O)CN1CCN(Cc2ccc(Cl)c(Cl)c2)CC1` [compound 56, 2-{2-[4-(3,4-Dichlorobenzyl)piperazin-1-yl]acetamido}thiophene-3-carboxamide], `NC(=O)c1cc(Cc2ccccc2)sc1NC(=O)CN1CCN(Cc2ccc(Cl)c(Cl)c2)CC1` [compound 55, 2-{2-[4-(3,4-Dichlorobenzyl)piperazin-1-yl]acetamido}-5-benzylthiophene-3-carboxamide] is 5.2-fold higher in EC50: 781 nM for the first, 4090 nM for the second. The first is the more potent here.

Going from `NC(=O)c1c(NC(=O)c2ccc(Cl)s2)sc2c1CCCC2` [compound 30, 2-{[(5-Chloro-2-thienyl)carbonyl]amino}-4,5,6,7-tetrahydro-1-benzothiophene-3-carboxamide] to `NC(=O)c1c(NC(=O)c2ccc(Cl)s2)sc2c1CCC2` [compound 29, 2-{[(5-Chloro-2-thienyl)carbonyl]amino}-5,6-dihydro-4H-cyclopenta[b]thiophene-3-carboxamide], the EC50 rises from 1470 nM to 6270 nM (4.3-fold).

Going from `O=c1[nH]c(-c2ccc(OCc3ccccc3F)cc2)nc2ccccc12` [compound 4, 2-{4-[(2-Fluorobenzyl)oxy]phenyl}-4(3H)-quinazolinone] to `COc1ccc(OCc2cc(-c3nc4sc(Cc5ccccc5)cc4c(=O)[nH]3)ccc2OC)cc1` [compound 5, 6-Benzyl-2-{4-methoxy-3-[(4-methoxyphenoxy)methyl]phenyl}thieno[2,3-d]pyrimidin-4(3H)-one], the EC50 rises from 250 nM to 1120 nM (4.5-fold). The first is the more potent here.

`NC(=O)c1cc(Cc2ccccc2)sc1NC(=O)c1ccccc1` [compound 37, 2-(Benzoylamino)-5-benzyl-3-thiophenecarboxamide] and `COc1ccc(C(=O)Nc2sc(Cc3ccccc3)cc2C(N)=O)cc1` [compound 41, 5-Benzyl-2-[(4-methoxybenzoyl)amino]-3-thiophenecarboxamide] are within 1.5-fold of each other in EC50: 2270 nM for the first, 1940 nM for the second.

Going from `COc1ccc(C(=O)Nc2sc(Cc3ccccc3)cc2C(N)=O)cc1COc1cccc(Cl)c1` [compound 51, 5-Benzyl-2-{3-[(3-chlorophenoxy)methyl]-4-methoxybenzamido}thiophene-3-carboxamide] to `COc1ccc(C(=O)Nc2sc(Cc3ccccc3)cc2C(N)=O)cc1OCc1ccccc1Cl` [compound 48, 2-[3-(2-Chlorobenzyloxy)-4-methoxybenzamido]-5-benzylthiophene-3-carboxamide], the EC50 rises from 355 nM to 1100 nM (3.1-fold).

Going from `COc1ccc(C(=O)Nc2sccc2C(N)=O)cc1COc1ccccc1Cl` [compound 27, 2-{3-[(2-Chlorophenoxy)methyl]-4-methoxybenzamido}thiophene-3-carboxamide] to `COc1ccc(C(=O)Nc2sc(C(C)C)cc2C(N)=O)cc1COc1ccc(Br)cc1` [compound 58, 2-({3-[(4-Bromophenoxy)methyl]-4-methoxybenzoyl}amino)-5-isopropyl-3-thiophenecarboxamide], the EC50 rises from 1660 nM to 8340 nM (5-fold).

`NC(=O)c1cc(Cc2ccccc2)sc1NC(=O)c1ccc(Cl)s1` [compound 36, N-[3-(Aminocarbonyl)-5-benzyl-2-thienyl]-5-chloro-2-thiophenecarboxamide] and `CCc1cc(C(=O)Nc2sc(Cc3ccccc3)cc2C(N)=O)cs1` [compound 32, 5-Benzyl-2-{[(5-ethyl-3-thienyl)carbonyl]amino}-3-thiophenecarboxamide] are within 1.5-fold of each other in EC50: 1660 nM for the first, 1900 nM for the second.

Going from `Cc1cc2c(=O)[nH]c(Cc3ccccc3)nc2s1` [compound 7, 2-Benzyl-6-methylthieno[2,3-d]pyrimidin-4(3H)-one] to `NC(=O)c1cc(Cc2ccccc2)sc1NC(=O)c1ccc2c(c1)OCO2` [compound 38, N-[3-(aminocarbonyl)-5-benzyl-2-thienyl]-1,3-benzodioxole-5-carboxamide], the EC50 falls from 4840 nM to 1300 nM (3.7-fold).

First: NC(=O)c1cc(Cl)ccc1OCC(=O)c1ccc(Cl)s1 [compound 9, 5-chloro-2-[2-(5-chlorothiophen-2-yl)-2-oxoethoxy]benzamide]
Second: NC(=O)c1ccccc1OCc1ccc(Cl)s1 [compound 1, 2-[(5-chlorothiophen-2-yl)methoxy]benzamide]
The EC50 of the first is 4.2-fold lower: 1330 nM for the first, 5610 nM for the second.

Going from `NC(=O)c1ccccc1NC(=O)c1cccc(COc2cccc(Cl)c2)c1` [compound 17, 2-({3-[(3-Chlorophenoxy)methyl]benzoyl}amino)benzamide] to `NC(=O)c1ccccc1NC(=O)C1CCN(C(=O)c2cccs2)CC1` [compound 11, N-[2-(aminocarbonyl)phenyl]-1-(2-thienylcarbonyl)-4-piperidinecarboxamide], the EC50 rises from 675 nM to 5180 nM (7.7-fold). The first is the more potent here.

Same assay, conditions: ovarian cancer-derived ES-2 cells, 72 h post compound application, eleven concentrations, two-fold dilution from 20µM, mean of three independent studies

In the case of “2-({4-[(2-Bromophenoxy)methyl]benzoyl}amino)-5-isopropyl-3-thiophenecarboxamide [compound 57]”, the EC50 is reported as 3740 nM.
